Data: BindingDB's records for doi:10.1016/0014-2999(88)90492-x (Novo Industri, 1988)
Structures can show the parent of a compound that is named as a salt.

How the values were obtained:
[1] = molecular target: D(1A) dopamine receptor (Mus musculus, UniProt Q61616)
[2] = molecular target: D(2) dopamine receptor (Mus musculus, UniProt P61168)
Chain of D(2) dopamine receptor (P61168 whole entry): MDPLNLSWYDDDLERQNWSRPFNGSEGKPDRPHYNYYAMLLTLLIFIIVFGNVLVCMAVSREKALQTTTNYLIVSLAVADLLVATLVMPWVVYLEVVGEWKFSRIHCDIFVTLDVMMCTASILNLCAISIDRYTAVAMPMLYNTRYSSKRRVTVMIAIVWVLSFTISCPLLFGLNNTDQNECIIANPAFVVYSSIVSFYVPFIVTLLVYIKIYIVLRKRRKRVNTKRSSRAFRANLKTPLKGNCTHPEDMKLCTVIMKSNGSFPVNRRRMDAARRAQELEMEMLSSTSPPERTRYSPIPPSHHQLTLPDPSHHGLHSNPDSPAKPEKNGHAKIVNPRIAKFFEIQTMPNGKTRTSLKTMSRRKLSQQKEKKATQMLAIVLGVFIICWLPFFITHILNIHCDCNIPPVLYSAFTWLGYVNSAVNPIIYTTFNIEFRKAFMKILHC

Chain of D(1A) dopamine receptor (Q61616 whole entry): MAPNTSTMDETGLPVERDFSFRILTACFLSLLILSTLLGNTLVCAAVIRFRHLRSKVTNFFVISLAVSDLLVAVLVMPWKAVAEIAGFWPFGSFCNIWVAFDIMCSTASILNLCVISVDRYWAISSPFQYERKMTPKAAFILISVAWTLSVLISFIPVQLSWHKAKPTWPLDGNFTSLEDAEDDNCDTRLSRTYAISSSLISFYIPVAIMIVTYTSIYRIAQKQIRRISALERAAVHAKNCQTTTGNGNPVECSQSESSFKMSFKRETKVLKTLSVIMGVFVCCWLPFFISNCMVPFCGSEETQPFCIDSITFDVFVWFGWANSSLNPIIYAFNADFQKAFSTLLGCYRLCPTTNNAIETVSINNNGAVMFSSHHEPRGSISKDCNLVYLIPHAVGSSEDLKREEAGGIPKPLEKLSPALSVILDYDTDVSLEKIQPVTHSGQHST

Ki [1] [nM] | Ki [2] [nM] | SMILES
> 10000 | 4.8 | CCN1CCC[C@H]1CNC(=O)c1c(O)c(Cl)cc(Cl)c1OC [3,5-Dichloro-N-(1-ethyl-pyrrolidin-2-ylmethyl)-2-hydroxy-6-methoxy-benzamide (raclopride)]
16 | 7.6 | CN1CCN(C2=Nc3ccccc3Oc3ccc(Cl)cc32)CC1 [13-chloro-10-(4-methylpiperazin-1-yl)-2-oxa-9-azatricyclo[9.4.0.0^{3,8}]pentadeca-1(11),3,5,7,9,12,14-heptaene]
17 | 27 | CN1CCN(C2=Nc3cc(Cl)ccc3Cc3sccc32)CC1 [CAS_42239-60-1]
> 10000 | 56 | CCc1c(C)[nH]c2c1C(=O)C(CN1CCOCC1)CC2 (centres undefined) [Moban]
– | 70 | CCN1CCCC1CNC(=O)c1cc(S(N)(=O)=O)ccc1OC (centres undefined) [N-[(1-ethylpyrrolidin-2-yl)methyl]-2-methoxy-5-sulfamoylbenzamide]

Further lines, the compound ahead of its results:

SMILES | Ki [1] [nM] | Ki [2] [nM]
CN1CCN(C2=Nc3cc(F)ccc3Cc3ccccc32)CC1 | 85 | 245
OCCN1CCN(CCCN2c3ccccc3Sc3ccc(C(F)(F)F)cc32)CC1 [2-[4-[3-[2-(trifluoromethyl)phenothiazin-10-yl]propyl]piperazin-1-yl]ethanol;hydrochloride] | 4.5 | –
O=C(O)c1ccccc1C(=O)Nc1cccc2ccccc12 [NPA,(+)] | 480 | 4.1
